Source: patent publication US6878522B2, “Methods for the identification of compounds useful for the treatment of disease states mediated by prostaglandin D2” (priority 2000, dated 2005)

Tests used:
[1] = system: isolated human eosinophils; assay: [Ca2+]i mobilization in isolated human eosinophils; format: cell-based
Excerpt: Calcium mobilization can be detected and measured by flow cytometry, and by labeling with fluorescent dyes that are trapped intracellularly. […] The ratio of fluorescence produced by the calcium-bound dye to that produce by the unbound dye is used to estimate the intracellular calcium concentration. In one embodiment, for example, the following method can be used. Cells that express CRTH2 are collected, and resuspended in fresh media at ˜2×10^5/ml the day before performing the calcium flux assay. Cells are incubated at 37° C. for not longer than 20-30 minutes, and then spun down and resuspended in 50 ml fresh PTI buffer (Hank's Buffer, pH 7.2-7.4; 10 mM Hepes; 1.6 mM CaCl2) containing Indo-1 AM, pre-warmed to 37° C., at a concentration of 10 million per ml. Cells are excited, and fluorescence is measured using a fluorimeter (Photon Technology Corporation, International). After the readout has stabilized, the time axis is reset, and PGD2 is added at a specific time point (e.g., 20 seconds). After response, the following reagents are added to the cuvette, to release and chelate total calcium, in the following order: 20 μl of 18% Triton X-100, 20 μl of 3M Tris, pH 8.5, and 20 μl of 0.5 M EGTA, pH 8.5. The experiment is repeated in the presence and the absence of a test compound. […] Therefore, in the presence of an […] test compound, the EC50 would be expected to be higher than this value, whereas in the presence of an agonist test compound, the EC50 would be expected to decrease.

[2] = system: isolated human eosinophils; assay: Reactive oxygen species (ROS) release in isolated human eosinophils; format: cell-based
Procedure: Another secondary assay is the reactive oxygen species release assay. One measure of PGD2-induced activation of CRTH2 cells, such as eosinophils, is the intracellular release of reactive oxygen species. This can be tested in a reactive oxygen species release assay, or ROS, using lucigenin-dependent chemiluminescence to measure reactive oxygen species release. In this method, freshly isolated eosinophils are prepared, by standard methods, and resuspended at concentration 2-4×10^6 cells/ml in (RPMI; 10 mM HEPES; 1× Pen/Strep; 0.5% FBS) at room temperature. Immediately prior to use, 1 ml of cell suspension is added to 9 ml of buffer, prewarmed to 37° C. for 15 minutes, and added 0.5 ml of 200 mM Lucigenin.
Test compounds (made as 10,000× DMSO stocks) are diluted in buffer with DMSO (1.5 ul of DMSO/2.5 ml Buffer) and 25 μl/well added to white 96-well culture plate and placed in a 37° C. incubator. Isolated cells (held at room temperature) are diluted with room temperature buffer to 2-4×10^6 cells/ml, and incubated in a water bath at 37° C. for 15 minutes. At 15 minutes, 0.5 ml 200 mM lucigenin (bis-N-Methylacridinium Nitrate; Sigma, St. Louis, Mo.) is added to 10 ml of the cell suspension, mixed, and 100 μl/well is added to the prewarmed microtiter plate. The plate is returned to 37° C. for 5 minutes, at which time 25 μl of stimulus is added) The plate is read in the luminometer for 8 cycles. The luminescence of test compounds can be tested in the presence of PGD2, relative to a control sample containing PGD2 alone. A compound that interferes with the ability of PGD2 to result in intracellular reactive oxygen species release in CRTH2 cells, is a candidate for a CRTH2 antagonist.

[3] = system: human whole blood eosinophil; assay: Human whole blood eosinophil actin-polymerization response; format: cell-based; details: read-out: Actin-polymer EC50
Excerpt: Yet another secondary screening assay is an actin polymerization assay. Another biological effect of the interaction of PGD2 with CRTH2 is actin polymerization. Thus, an actin polymerization assay may be used as a secondary screen to characterize the activity of a compound isolated in the primary screening assays of the invention. In one embodiment, actin polymerization may be assayed using an actin-specific fluorescent label, nitrobenzoxadiazole (NBD)-phallacidin, which binds polymerized actin fiber. In a specific embodiment, the assay may be performed as follows: cell preparations are resuspended at 5-10×10^6 cells/ml in RPMI 1640 plus 10 mM HEPES, 100/10 Pen/Strep, and 0.5% FCS. The cell suspension is aliquoted (100 μL per well) into a 96-well U-bottom polypropylene microtiter plate. 50 ul of the appropriate stimulus (PGD2 or test compound, or both PGD2 and test compound) is added using an 8-channel pipette followed exactly 25 seconds later by 50 ul of a stopping solution which contains lysophosphotidylcholine (0.5 mg/ml), Hank's balanced salt solution (100 ul 10×), 16% formaldehyde (800 ul), and 6.6 uM NBD-phallacidin in MEOH (100 ul). The plate is allowed to sit at room temperature for 15 minutes. The plate is then centrifuged at 1000 rpm for 5 minutes, the supernatants flicked off and the cell pellets resuspended in 250 ul PBS plus 2%FCS and 0.2% sodium azide. Each sample is then read on a FACS Caliber instrument. Cells are gated using the forward scatter/side scatter data in the lymphocyte area. Responses are measured by the change in median FL-1 fluorescence between vehicle treated cells and stimulus treated cells. Test compounds can be assayed in the presence and absence of PGD2, and compared to a sample containing PGD2 alone. A compound that reduces PGD2-induced actin polymerization of CRTH2 cells is identified as a candidated CRTH2 antagonist.

[4] = target: T1, human eosinophil [3H]-PGD2 binding site (Homo sapiens, UniProt Q9Y5Y4); assay: [3H]PGD2 binding in isolated human eosinophils; details: number in brackets not defined
T1 construct: endogenous in cells; host or cells: isolated human eosinophils
T1 sequence (Q9Y5Y4 1-395): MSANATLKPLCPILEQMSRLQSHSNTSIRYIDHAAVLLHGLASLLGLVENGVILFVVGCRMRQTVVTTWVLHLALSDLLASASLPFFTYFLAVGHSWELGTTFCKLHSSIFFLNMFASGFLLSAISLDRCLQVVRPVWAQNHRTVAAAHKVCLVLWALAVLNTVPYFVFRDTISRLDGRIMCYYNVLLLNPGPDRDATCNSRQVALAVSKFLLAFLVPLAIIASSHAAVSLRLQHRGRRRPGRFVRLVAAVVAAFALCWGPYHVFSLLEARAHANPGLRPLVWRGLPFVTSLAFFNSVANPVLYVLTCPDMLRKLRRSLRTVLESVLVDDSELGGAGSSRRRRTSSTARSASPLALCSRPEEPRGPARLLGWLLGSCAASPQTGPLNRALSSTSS
Excerpt: As is shown in FIG. 1B, the effects of the prostaglandins and analogs on human eosinophil [^3H]-PGD2 binding site and eosinophil functional responses have the same order of potency (i.e., PGD2>PGF2a>>BW245C).

Row | SMILES | EC50 [1] [nM] | EC50 [2] [nM] | EC50 [3] [nM] | IC50 [4] [nM]
1 | O=C(O)CCCCCCC1C(=O)NC(=O)N1CCC(O)C1CCCCC1 (stereo not shown) [BW-245C] | > 1000 | > 1000 | > 1000 | > 100000
2 | CCCCC[C@H](O)/C=C/[C@H]1C(=O)C[C@H](O)[C@@H]1C/C=C\CCCC(=O)O [PGD2, prostaglandin D2] | 30 | 2 | 4 | 25
3 | CCCCC[C@H](O)/C=C/[C@H]1[C@H](O)CC(=O)[C@@H]1C/C=C\CCCC(=O)O [PGE2] | > 1000 | > 100 | > 300000 | 3300
4 | CCCCC[C@H](O)/C=C/[C@@H]1[C@@H](C/C=C\CCCC(=O)O)[C@@H](O)C[C@H]1O [PGF2α] | > 1000 | > 1000 | 1900 | 1500
